In paper PMC11589483, “Preparation and anti-colon cancer effect of a novel curcumin analogue (CA8): in vivo and in vitro evaluation” (Frontiers in Pharmacology, 2024):
Read-outs that look alike come from different tables or passages of the source.

How the values were obtained:
[1] = Solubility in water by HPLC; format: physicochemical; conditions: 25°C, mass of solute dissolved at saturation in 100 g of solvent
Method: The solubility of the synthesized compounds in water was determined using high performance liquid chromatography (HPLC). First, 1.000 g of each compound was accurately weighed, placed in 100 g of water, and stirred at 25°C for a period of time. Then, the reaction system was allowed to stand for 1 h. The supernatant was quantitatively taken, diluted with methanol to volume, and centrifuged, and the solubility was determined using HPLC.

lung cancer cells A549 = experiment: MTT antiproliferative assay, A549; format: cell-based; conditions: Homo sapiens
Method: (§1) The human cancer cell lines A549, HepG2, MCF-7, Caco-2, and HeLa and the normal human liver cell line LO2 were all obtained from Shanghai Cell Bank of China. All cells were cultured in RPMI 1640 or DMEM supplemented with 10% fetal bovine serum, 100 U/mL penicillin, and 100 μg/mL streptomycin and incubated at 37°C under 5% CO2 (HEPA incubator class100 Thermo company). The medium was replaced three times a week. Cells used in all were in the exponential growth phase.
(§2) The cell inhibition rate was evaluated using the MTT assay. Briefly, cells were seeded in a 96-well plate at a density of 3–4 × 10^3 cells per well and incubated at 37°C for 24 h. The MCACs to be tested were dissolved in dimethyl sulfoxide (DMSO, Merck, Germany) and diluted to five concentrations (3.75, 7.5, 15, 30, 60 μM/L) with RPMI 1640 medium, with each dose analyzed in quadruplicate. The concentration of DMSO was always maintained below 1‰, a concentration that is nontoxic to cells. After incubation for 24 or 48 h, MTT reagent (5 mg/mL) was added to each well and the samples were incubated for 3 h at 37°C in the dark. The absorbance of formazan crystals dissolved in 150 µL of DMSO was measured at 570 nm using a microplate reader to identify the cytotoxic effect of the analogues.

liver cancer cells HepG2 = experiment: MTT antiproliferative assay, HepG2; format: cell-based; conditions: Homo sapiens
Method: as §1, §2

[2] = system: breast cancer cells MCF-7; experiment: MTT antiproliferative assay, MCF-7; format: cell-based; conditions: Homo sapiens
Method: as §1, §2

[3] = system: cervical cancer cells HeLa; experiment: MTT antiproliferative assay, HeLa; format: cell-based; conditions: Homo sapiens
Method: as §1, §2

[4] = system: colon cancer cells Caco-2; experiment: MTT antiproliferative assay, Caco-2; format: cell-based, human; conditions: for IC50: Homo sapiens, read-out: IC50 Caco2
Method: as §1, §2

[5] = system: normal human liver cell line LO2; experiment: MTT assay, normal liver cells LO2; format: cell-based
Method: as §1, §2

Caco-2 cells [6] = experiment: Clonogenic assay; format: cell-based, human; conditions: 4, 8, or 16 μM/L, 6 h exposure
Method: Caco-2 cells were seeded into a 6-well plate at a density of 1 × 10^3 cells per well and incubated overnight. Then, the medium was replaced, and CA8 was added at the prescribed concentrations (4, 8, or 16 μM/L). After 6 h, the drug-containing medium was replaced with RPMI 1640 medium.
Caco-2 cells in 6-well plates were incubated for 1–2 weeks until the appearance of the colonies, followed by staining with crystal violet and incubation for 1 h at room temperature. After staining, images were captured accordingly.

Caco-2 cells [7] = experiment: Apoptosis assay (Annexin V-FITC/propidium iodide flow cytometry); format: cell-based, human; conditions: 4, 8, 16 μM, 24 h
Method: The apoptotic effect of CA8 was assessed in Caco-2 cells according to the kit instructions. First, Caco-2 cells were treated with CA8 at dose of 4, 8, or 16 μM/L for 24 h. The cells were harvested and suspended in 500 μL annexin-binding buffer. Subsequently, the cells were stained with Annexin V-FITC for 15 min and then incubated with propidium iodide for 5 min at room temperature in the dark. Finally, all samples were evaluated via flow cytometry (FACS Calibur, BD, San Jose, CA, United States). The results obtained were analyzed using the FlowJo software, and the apoptotic rate was calculated.

Caco-2 cells [8] = experiment: Cell cycle analysis (flow cytometry); format: cell-based, human; conditions: 4, 8, 16 μM, 24 h
Method: Caco-2 cells treated with CA8 at dose of 4, 8, or 16 μM/L for 24 h, they were collected, washed with PBS, and fixed in 70% ethanol overnight. The fixed cells were washed twice with PBS, treated with RNase A (10 mg/mL) and resuspended in 50 μg/mL propidium iodide for staining. Finally, the cell cycle distribution was assessed via flow cytometry (BD Biosciences, CA).

[9] = system: AKT, JNK, and NF-κB signaling pathways and apoptosis-related proteins; experiment: Western blot of signaling and apoptosis proteins in Caco-2 cells; format: cell-based, human; conditions: Caco-2, 4, 8, 16 μM, 24 h, vs control
Method: The expression of apoptotic proteins and pathways was detected using western blot. Caco-2 cells treated with CA8 at a dose of 4, 8, or 16 μM/L for 24 h were collected and lysed with RIPA lysis buffer for 10 min. The concentration of total proteins was determined using a BCA protein quantitative kit. Total proteins were separated on an SDS-PAGE gel, transferred to PVDF membranes and incubated with 5% skim milk for 2 h. Subsequently, the PVDF membranes were incubated with primary antibodies (AKT 1:2000; Bcl-2 1:2000; Bax 1:5000; caspase-3 1:2,000; caspase-9 1:1000; P-AKT 1:1000; JNK 1:1000; P-JNK 1:1000; IKBα 1:2000; and β-actin 1:100000) at 4°C overnight. The membranes were rinsed three times with TBST and incubated with secondary antibodies (1:5000 dilution) for 2–3 h at room temperature. Finally, proteins were visualized using an ECL chemiluminescent kit (KF001, affinity). In the final step, the ImageJ software was used to analyze the results.

[10] = Pharmacokinetics evaluation after gavage; format: in vivo, Sprague Dawley (SD) rats; conditions: SD rats
Method: After the evaluation of the safety of CA8, 10 male Sprague Dawley (SD) rats were randomly divided into the CA8 and CU groups for the pharmacokinetic test ([Ye et al., 2020]). The rats were subjected to 1 week of adaptation and were fasted for 6 h before the experiment. CA8 (50 mg kg^−1) and CU (50 mg kg^−1) were administered via gavage. Blood samples were collected at 0.03, 0.08, 0.16, 0.25, 0.5, 1, 2, 4, 8 and 12 h and centrifuged at 5,000 rpm for 3 min to obtain the plasma. A mixture of ethyl acetate and methanol was then added to precipitate the proteins and separate the CA8 and CU from the plasma. The samples were then analyzed using HPLC.

Caco-2 xenograft tumors = experiment: In vivo anticancer activity, Caco-2 xenograft; conditions: Caco-2 xenograft; CA8 100 mg/kg, CU 100 mg/kg, tegafur 50 mg/kg, gavage every other day
Method: Twenty 5-week-old male BALB nude mice purchased from SPF (Beijing) Biotechnology Co., Ltd. were used for the in vivo pharmacodynamic experiment of CA8. Caco-2 cells (6 × 10^6 cells in 100 μL PBS) were harvested and subcutaneously injected into the right hip of the mice. Then, they were divided into four groups when the tumor volume reached 100 mm^3 and treated with saline, CU (100 mg/kg), tegafur (50 mg/kg), or CA8 (100 mg/kg) via gavage every other day. Tumor size and body weight were measured and recorded every other day. At the end of the experiment, the mice were sacrificed and tumors were harvested and weighed. Tumor volumes were calculated by measuring length (L) and width (W) according to the following formula: V = 0.5 × L × W^2. The tumor tissue was embedded in paraffin, cut into slices, stained with HE, and observed under a light microscope.

[11] = design: method as in Al-Hujaily et al., 2011; conditions: ref Al-Hujaily et al., 2011; cited from earlier work

COc1cc(/C=C/C(=O)CC(=O)/C=C/c2ccc(O)c(OC)c2)ccc1O [CU, Curcumin]
Solubility [1]: 0.00017 mg/100g | IC50 (lung cancer cells A549; A549, 24 h): 37.2 ± 2.9 µM | IC50 (lung cancer cells A549; A549, 48 h): 34.4 ± 1.5 µM | IC50 (liver cancer cells HepG2; HepG2, 24 h): 43.4 ± 2.9 µM | IC50 (liver cancer cells HepG2; HepG2, 48 h): 27.4 ± 0.3 µM | IC50 ([2]; MCF7, 24 h): 40 ± 2.7 µM | IC50 ([2]; MCF7, 48 h): 22.3 ± 1.6 µM | IC50 ([3]; 24 h): 58.3 ± 2.2 µM | IC50 ([3]; 48 h): 17.3 ± 0.8 µM | SI Caco2 ([4]; 48 h, logarithm of ratio IC50 LO2 / IC50 cancer cells): −0.08 | IC50 ([4]; Caco-2, 24 h): > 60 µM | IC50 ([4]; Caco-2, 48 h): 33 ± 2.1 µM | IC50 ([5]; 24 h): > 60 µM | IC50 ([5]; 48 h): 27.6 ± 1.36 µM | Caco-2 colony formation (Caco-2 cells [6]): did not have a significant inhibitory effect | induction of apoptosis (Caco-2 cells [7]): induced early and late apoptosis in a concentration-dependent manner | cell cycle arrest (Caco-2 cells [8]): induced S-phase arrest only to a lesser extent | expression of P-AKT [9]: inhibited the expression of P-AKT | expression of P-JNK and IκBα [9]: induced the expression of P-JNK and IκBα in a concentration-dependent manner | time after dosing until cleared from / still detected in plasma ([10]; oral 50 mg kg^−1): 2 h | AUC(0-t) ([10]; oral (gavage) 50 mg kg^−1): 35,697.63 μg/L*min | CLz ([10]; oral (gavage) 50 mg kg^−1): 900 mL/min/kg | Tmax ([10]; oral (gavage) 50 mg kg^−1): 30.00 min | Vz ([10]; oral (gavage) 50 mg kg^−1): 97.58 L/kg | Cmax ([10]; male, Sprague Dawley, rat, plasma, oral (gavage) 50 mg kg^−1): 380 ng/mL | MRT last ([10]; male, Sprague Dawley, rat, plasma, oral (gavage) 50 mg kg^−1, read-out: MRT(0-t) (converted)): 54 min | half-life ([10]; male, Sprague Dawley, rat, plasma, oral (gavage) 50 mg kg^−1, read-out: t1/2z): 74.8 min | inhibitory effect on tumor growth (Caco-2 xenograft tumors): CA8 > tegafur > CU

COc1cc(C=C2CN(C)CC(=Cc3ccc(O)c(OC)c3)C2=O)ccc1O [PAC]
solubility in water, times that of CU [11]: 27 times
